Test results taken from PubChem BioAssay AID1963825 (Molecular Pharmacology Branch, DTP, NCI, 2024).

Assay: Anticancer human tumor 997537-175-T-J1-PDC patient-derived colon adenocarcinoma cell line growth inhibition [POLQ]
Conditions: 997537-175-T-J1-PDC complex spheroid viability, combination with POLQ inhibitors; for IC50: curve of first compound; for viability, T/C: stronger effect = lower value
Procedure, shortened: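 Growth inhibition in 3D: complex spheroids (tumor PDC, HUVEC, MSC) treated with POLQ inhibitor combinations; where Cmax unknown, highest tested concentration 10 microM, except SN-38 at 1 microM.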

[1] = second compound 0.0316 µM, first compound 0.0316 µM
[2] = second compound 0.0316 µM, first compound 0.1 µM
[3] = second compound 0.1 µM, first compound 0.0316 µM
[4] = second compound 0.1 µM, first compound 0.1 µM
[5] = second compound 0.316 µM, first compound 0.0316 µM
[6] = second compound 0.316 µM, first compound 0.1 µM
[7] = second compound 1 µM, first compound 0.0316 µM
[8] = second compound 1 µM, first compound 0.1 µM
[9] = second compound 3.16 µM, first compound 0.0316 µM
[10] = second compound 3.16 µM, first compound 0.1 µM
[11] = second compound 10 µM, first compound 0.0316 µM
[12] = second compound 10 µM, first compound 0.1 µM
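Also: luminescence signal used as a surrogate for viable cells; spheroids exposed to drugs for seven days before readout.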

Which results are given for `CC1COCCN1c1cc(C2(S(C)(=N)=O)CC2)nc(-c2ccnc3[nH]ccc23)n1` (centres undefined) + Nc1ccc(C#CCN(C(=O)Cc2ncc(C(F)(F)F)cc2C(F)(F)F)c2ccc(F)cc2)nn1?
IC50 (second compound 0.0316 µM): > 10 µM; IC50 (second compound 0.1 µM): 7.51 µM; IC50 (second compound 0.316 µM): > 10 µM; IC50 (second compound 1 µM): > 10 µM; IC50 (second compound 3.16 µM): 6.51 µM; IC50 (second compound 10 µM): > 10 µM; viability, T/C [1]: 115%; viability, T/C [2]: 107%; viability, T/C (second compound 0.0316 µM, first compound 0.316 µM): 86.7%; viability, T/C (second compound 0.0316 µM, first compound 1 µM): 96.5%; viability, T/C (second compound 0.0316 µM, first compound 3.16 µM): 87.1%; viability, T/C (second compound 0.0316 µM, first compound 10 µM): 57.2%; viability, T/C [3]: 105%; viability, T/C [4]: 105%; viability, T/C (second compound 0.1 µM, first compound 0.316 µM): 81.3%; viability, T/C (second compound 0.1 µM, first compound 1 µM): 95.4%; viability, T/C (second compound 0.1 µM, first compound 3.16 µM): 65.5%; viability, T/C (second compound 0.1 µM, first compound 10 µM): 43.9%; viability, T/C [5]: 109%; viability, T/C [6]: 103%; viability, T/C (second compound 0.316 µM, first compound 0.316 µM): 97.5%; viability, T/C (second compound 0.316 µM, first compound 1 µM): 79.2%; viability, T/C (second compound 0.316 µM, first compound 3.16 µM): 79.4%; viability, T/C (second compound 0.316 µM, first compound 10 µM): 71.7%; viability, T/C [7]: 97.8%; viability, T/C [8]: 108%; viability, T/C (second compound 1 µM, first compound 0.316 µM): 105%; viability, T/C (second compound 1 µM, first compound 1 µM): 81%; viability, T/C (second compound 1 µM, first compound 3.16 µM): 63.9%; viability, T/C (second compound 1 µM, first compound 10 µM): 52%; viability, T/C [9]: 93.9%; viability, T/C [10]: 91.2%; viability, T/C (second compound 3.16 µM, first compound 0.316 µM): 107%; viability, T/C (second compound 3.16 µM, first compound 1 µM): 92.4%; viability, T/C (second compound 3.16 µM, first compound 3.16 µM): 66.9%; viability, T/C (second compound 3.16 µM, first compound 10 µM): 40%; viability, T/C [11]: 94.9%; viability, T/C [12]: 94.6%; viability, T/C (second compound 10 µM, first compound 0.316 µM): 94.6%; viability, T/C (second compound 10 µM, first compound 1 µM): 81.7%; viability, T/C (second compound 10 µM, first compound 3.16 µM): 47%; viability, T/C (second compound 10 µM, first compound 10 µM): 55.8%

For `Cn1ncnc1[C@H]1c2n[nH]c(=O)c3cc(F)cc(c23)N[C@@H]1c1ccc(F)cc1` + Nc1ccc(C#CCN(C(=O)Cc2ncc(C(F)(F)F)cc2C(F)(F)F)c2ccc(F)cc2)nn1, which IC50 (second compound 0.0316 µM) is on record?
Its IC50 is greater than 0.1 µM.

What about the IC50 (second compound 0.1 µM) of the same molecule?
Its IC50 is greater than 0.1 µM.

And the IC50 (second compound 0.316 µM)?
Its IC50 is greater than 0.1 µM.

What about the IC50 (second compound 1 µM) of the same molecule?
Its IC50 is greater than 0.1 µM.

And the IC50 (second compound 3.16 µM)?
Its IC50 is greater than 0.1 µM.

What about the IC50 (second compound 10 µM) of the same molecule?
Its IC50 is greater than 0.1 µM.

And the viability, T/C (second compound 0.0316 µM, first compound 0.000316 µM)?
The viability, T/C was 98.8%.

What about the viability, T/C (second compound 0.0316 µM, first compound 0.001 µM) of the same molecule?
Its viability, T/C is 97.4%.

What about the viability, T/C (second compound 0.0316 µM, first compound 0.00316 µM) of the same molecule?
Its viability, T/C is 104%.

What about the viability, T/C (second compound 0.0316 µM, first compound 0.01 µM) of the same molecule?
The viability, T/C was 94.5%.

What about the viability, T/C [1] of the same molecule?
The viability, T/C was 98.1%.

What about the viability, T/C [2] of the same molecule?
Its viability, T/C is 103%.

And the viability, T/C (second compound 0.1 µM, first compound 0.000316 µM)?
The viability, T/C was 103%.

And the viability, T/C (second compound 0.1 µM, first compound 0.001 µM)?
The viability, T/C was 114%.

What about the viability, T/C (second compound 0.1 µM, first compound 0.00316 µM) of the same molecule?
The viability, T/C was 99.2%.

What about the viability, T/C (second compound 0.1 µM, first compound 0.01 µM) of the same molecule?
Its viability, T/C is 104%.

And the viability, T/C [3]?
Its viability, T/C is 95.7%.

And the viability, T/C [4]?
Its viability, T/C is 99%.

And the viability, T/C (second compound 0.316 µM, first compound 0.000316 µM)?
Its viability, T/C is 100%.

What about the viability, T/C (second compound 0.316 µM, first compound 0.001 µM) of the same molecule?
Its viability, T/C is 110%.

And the viability, T/C (second compound 0.316 µM, first compound 0.00316 µM)?
The viability, T/C was 95.6%.

What about the viability, T/C (second compound 0.316 µM, first compound 0.01 µM) of the same molecule?
Its viability, T/C is 106%.

What about the viability, T/C [5] of the same molecule?
Its viability, T/C is 95.3%.

What about the viability, T/C [6] of the same molecule?
Its viability, T/C is 93.9%.

What about the viability, T/C (second compound 1 µM, first compound 0.000316 µM) of the same molecule?
Its viability, T/C is 105%.

What about the viability, T/C (second compound 1 µM, first compound 0.001 µM) of the same molecule?
Its viability, T/C is 90.5%.

And the viability, T/C (second compound 1 µM, first compound 0.00316 µM)?
Its viability, T/C is 89.4%.

What about the viability, T/C (second compound 1 µM, first compound 0.01 µM) of the same molecule?
The viability, T/C was 99.4%.

And the viability, T/C [7]?
The viability, T/C was 120%.

What about the viability, T/C [8] of the same molecule?
Its viability, T/C is 90.5%.

And the viability, T/C (second compound 3.16 µM, first compound 0.000316 µM)?
The viability, T/C was 101%.

What about the viability, T/C (second compound 3.16 µM, first compound 0.001 µM) of the same molecule?
Its viability, T/C is 103%.

And the viability, T/C (second compound 3.16 µM, first compound 0.00316 µM)?
The viability, T/C was 86.4%.

What about the viability, T/C (second compound 3.16 µM, first compound 0.01 µM) of the same molecule?
Its viability, T/C is 95.3%.

And the viability, T/C [9]?
Its viability, T/C is 104%.

And the viability, T/C [10]?
The viability, T/C was 99.2%.

And the viability, T/C (second compound 10 µM, first compound 0.000316 µM)?
Its viability, T/C is 95.4%.

What about the viability, T/C (second compound 10 µM, first compound 0.001 µM) of the same molecule?
Its viability, T/C is 102%.

And the viability, T/C (second compound 10 µM, first compound 0.00316 µM)?
The viability, T/C was 98.6%.

What about the viability, T/C (second compound 10 µM, first compound 0.01 µM) of the same molecule?
The viability, T/C was 91.3%.

And the viability, T/C [11]?
The viability, T/C was 103%.

What about the viability, T/C [12] of the same molecule?
Its viability, T/C is 106%.
